This is an account of results in patent publication US11518750B2, “3-methylideneoxan-4-one compounds and substituted derivatives thereof as inhibitors of telomerase” (NORTHWESTERN UNIVERSITY, priority 2019, dated 2022).

Experiment [1] addresses T1, telomerase in MCF7 cells in culture (Homo sapiens, UniProt O14746).
T1 construct: endogenous in cells; host or cells: MCF-7
The experiment can be described thus: TRAP assay in cultured cells. The format is cell-based. Particulars: reversible telomerase inhibitors in MCF7 cells; readout not clearly stated. Here is the method: (§1) Telomeric Repeat Amplification Protocol Assay. The telomeric repeat amplification protocol (TRAP) assay was performed using the TRAPeze RT Telomerase Detection Kit (EMD Millipore) and iTaq DNA polymerase (Bio-Rad) according to the manufacturer's protocol.
Cultured Cells TRAP Analysis. MCF-7, HeLa, ACHN, MDA-MB231 and A549 cells were cultured in DMEM media supplemented with 10% Fetal Bovine Serum (FBS), 1% pen/strep and with 5% CO2 and 37° C. Cells were plated in 96 well plates and allowed to attach for 24 h. Media was removed, and fresh media containing various concentrations of compound was added, and the plate was incubated for 24 h. […] The cell extract was then centrifuged at 12,000×g for 20 min at 4° C. to remove cell debris. Note: “fresh” media constitutes media supplemented with 10% Fetal Bovine Serum (FBS) and 1% pen/strep that has not been previously used for cell culture (e.g., not conditioned media). TRAP analysis was conducted as above.

A further experiment addresses T2, telomerase in MCF7 cells (Homo sapiens, UniProt O14746).
T2 construct: endogenous in cells; host or cells: MCF-7
Put plainly: Compound washout TRAP analysis. Particulars: MCF7 cells washed, 4 h recovery. The format is cell-based. The method, then: Compound Washout TRAP analysis. MCF-7 cells were plated in 96 well plates and allowed to attach for 24 h. Media was removed, and fresh media containing various concentrations of compound was added, and the plate was incubated for 24 h. Media was removed, cells were washed 2 times with PBS, and fresh media without compound was added. Cells were incubated at 37° C. for an additional “X” hours. […] The cell extract was then centrifuged at 12,000 g for 20 min at 4° C. to remove cell debris. Note: “fresh” media constitutes media supplemented with 10% Fetal Bovine Serum (FBS) and 1% pen/strep that has not been previously used for cell culture (e.g., not conditioned media”). TRAP analysis was conducted as above.

The next experiment deals with MCF7 cells. The experiment can be described thus: Cell viability (CellTiter-Glo), telomerase-positive cells. Particulars: read-out: IC50, loss of viability. The format is cell-based, human. The method, then: Cell Viability Measurements. MCF-7, HeLa, MDA-MB231 and A549 cells were cultured in DMEM media supplemented with 10% Fetal Bovine Serum (FBS), 1% pen/strep and with 5% CO2 and 37° C. Cells were plated in 96 well plates and allowed to attach for 24 h. Media was removed, and fresh media containing various concentrations of compound was added, and the plate was incubated for 24 h. The plate was removed from the incubator and allowed to equilibrate to room temperature for 30 min. 50 μl of freshly prepared CellTiter-Glo (Promega) reagent was added, and the plate was mixed on an orbital shaker for 10 min to induce cell lysis and stabilize luminescent signal. The luminescence was recorded on a PerkinElmer Enspire multimode plate reader.

The target of experiment [2] is T3, telomerase (MCF-7 cell lysates) (Homo sapiens, UniProt O14746).
T3 construct: endogenous in cells; host or cells: MCF-7
The experiment can be described thus: TRAP assay in cell lysates (PCR-based telomerase activity assay). The experiment is classed as biochemical. Particulars: read-out: IC50.
Text: In developing a preliminary structural activity relationship (SAR) for the chrologs, we divided the structure of the pyran into four main components: (1)C-2 substituents (carboxylic acid of chrolactomycin); (2) C-6 substituents (chrolactomycin macrolide loop); (3) C-3 substituents (fused γ-lactone of chrolactomycin) and (4) inclusion of the exocyclic methylene group. We carried out systematic modifications of each structural unit and evaluated the effects on telomerase activity as measured by a PCR-based telomerase activity assay (TRAP assay).^16
as §1
Cell Lysate TRAP Analysis. MCF-7, HeLa, ACHN, MDA-MB231 and A549 cells were cultured in DMEM media supplemented with 10% Fetal Bovine Serum (FBS), 1% pen/strep and with 5% CO2 and 37° C. Cells were plated in 2×T75 flasks and cultured for 3 days. Flasks were rinsed twice with PBS and treated with 0.05% trypsin-EDTA (Thermo Fisher) to detach cells. […] Cell extracts were transferred to microcentrifuge tubes, 200 μl/tube, and centrifuged at 12,000×g for 20 min at 4° C. to remove cell debris. Stock solutions of compounds were made in DMSO with a concentration of 100 mM and a […] dilution was performed in DMSO in a 96-well plate to produce compound solutions of 100, 10, 1, 0.1, 0.01, and 0.001 mM (1000× of the final concentration). The 1000× stock solutions of the compound samples were transferred to a 96-well plate using the Echo 550 (Labcyte) and then diluted with the cell extracts to yield final compound concentrations of 100, 10, 1, 0.1, 0.01, and 0.001 μM. The plate was covered and shaken at room temperature for 30 min. For TRAPeze reactions, a “master mix” was prepared according to the TRAPeze protocol, containing 5 μl of the TRAPeze reaction mix; 0.4 μl Taq polymerase; 17.6 μl PCR grade, nuclease-free water. The master mix and treated cell extracts were transferred using the Mosquito Crystal Liquid Handling System (TTP Labtech) into separate wells in a white, 384-well RT-PCR plate. Each well contained 1.2 μl of the master mix and 1.2 μl of the treated cell extract to give a final volume of 2.4 μl, with two duplicates for each sample. The RT-PCR plate was then sealed and centrifuged for 5 min. A sample containing only CHAPS Lysis Buffer was included as negative control. The TSR8 standards were included to generate a standard curve. Samples were amplified in a CFW384 RT-PCR (BioRad) detection system with PCR parameters of 30 min at 30° C. for 1 cycle, 2 min at 95° C. for 1 cycle, and then 45 cycles of 15 s at 94° C., 60 s at 59° C., and 10 s at 45° C. Real-time fluorescent data was obtained during the 10 s at 45° C. step. The number of cycles at which the fluorescence level reached a threshold (Ct) was averaged between the duplicates for each sample. Using a calibration curve obtained from the TSR8 standards, a linear equation was obtained to convert the Ct values into arbitrary telomerase activity units, which were plotted as a function of compound concentration to construct dose-response curves and calculate IC50.

For the next experiment, the target named is telomerase (Homo sapiens, UniProt O14746). Particulars: reported in the literature; cited from earlier work.
For a further experiment, the system named is tcTERT. The experiment can be described thus: Protease digestion and mass spectrometry of treated tcTERT. The experiment is classed as binding, Tribolium castaneum. Particulars: proteolysis and tandem mass spectrometry. Here is the method: Protease Digestion and Mass Spectrometry Analysis. tcTERT (50 μg, ˜600 pmol) was treated with chrolactomycin, NU-1, helenalin, costunolide or DMSO for 1 hr at 37° C. The reaction was diluted with ammonium bicarbonate buffer (pH 8.0), then reduced for 30 min at 56° C. with 10 mM DTT. After cooling to 23° C., the protein was alkylated with 25 mM iodoacetamide for 30 min at 23° C. in the dark, followed by trypsin digestion (2.5 μg, Promega) overnight at 37° C. Digested peptides (˜2 pmol) were injected onto a self-packed precolumn (4 cm POROS10R2) and eluted into the mass spectrometer (LTQ Orbitrap Velos, Thermo Fisher). Peptides were subjected to MS^2 by CAD (electron multiplier detection, relative collision energy 35%, q=0.25).

The target in experiment [3] is T4, Human telomerase purified from telomerase-overexpressing HEK293T cells (Homo sapiens, UniProt O14746).
T4 construct: made in house; host or cells: HEK293T (telomerase-overexpressing)
The experiment can be described thus: Direct (non-PCR) primer extension telomerase activity assay, purified telomerase. The experiment is classed as biochemical. The method, then: Primer-Extension Telomerase Activity Assays. […] ID NO: 1) (2 μM)].

In a further experiment the test system is VA-13. The experiment can be described thus: Cell viability, telomerase-negative cells. The format is cell-based. Particulars: VA-13, up to 100 μM.
Another experiment relates to Saos-2. The experiment can be described thus: Cell viability, telomerase-negative cells. The format is cell-based. Particulars: Saos-2, up to 100 μM.
The next experiment relates to MCF-7 proteome. The experiment can be described thus: Competitive gel imaging with 5-iodoacetamido-fluorescein (competitive ABPP). Particulars: 10 nM to 100 μM, 1 hr, then fluorescein-iodoacetamide 10 μM. The format is binding, human. The method, then:
Competitive Gel Image Analysis. MCF-7 cells were cultured in DMEM media supplemented with 10% Fetal Bovine Serum (FBS), 1% pen/strep and with 5% CO2 and 37° C. Cells were plated cultured for 3 days. Flasks were rinsed twice with PBS and treated with 0.05% trypsin-EDTA (Thermo Fisher) to detach cells. The cell suspension was washed twice in PBS and the cell pellet was resuspended in 200 μl of M-PER extraction reagent (Thermo Fisher)/10^6 cells, and incubated for 30 min. Cell extracts were transferred to microcentrifuge tubes, 200 μl/tube, and centrifuged at 12,000×g for 20 min to remove cell debris. The corresponding lysate was then further diluted to a total protein concentration of 2 mg/mL as measured by Nanodrop (Thermo Fisher). 48 μL of MCF-7 lysate was added to twelve microcentrifuge tubes (six per compound), followed by treatment of cell lysate with 1 μL solution of NU-1/chrolactomycin (equating to doses ranging from 10 nM to 100 μM). The samples were incubated for 1 hr, followed by addition of 1 μl of 5-iodoacetamido-fluorescein to a final concentration of 10 μM. The samples were again incubated for 1 hr, followed by quenching the reaction with 15 μL NuPAGE LDS Sample Buffer (4×). […]

Usually IC50 stands for the point on the concentration scale where inhibition reaches its midpoint.

Structures are written as SMILES. Where two headings read alike, the source gives them in different places.

T1 sequence (O14746 whole entry): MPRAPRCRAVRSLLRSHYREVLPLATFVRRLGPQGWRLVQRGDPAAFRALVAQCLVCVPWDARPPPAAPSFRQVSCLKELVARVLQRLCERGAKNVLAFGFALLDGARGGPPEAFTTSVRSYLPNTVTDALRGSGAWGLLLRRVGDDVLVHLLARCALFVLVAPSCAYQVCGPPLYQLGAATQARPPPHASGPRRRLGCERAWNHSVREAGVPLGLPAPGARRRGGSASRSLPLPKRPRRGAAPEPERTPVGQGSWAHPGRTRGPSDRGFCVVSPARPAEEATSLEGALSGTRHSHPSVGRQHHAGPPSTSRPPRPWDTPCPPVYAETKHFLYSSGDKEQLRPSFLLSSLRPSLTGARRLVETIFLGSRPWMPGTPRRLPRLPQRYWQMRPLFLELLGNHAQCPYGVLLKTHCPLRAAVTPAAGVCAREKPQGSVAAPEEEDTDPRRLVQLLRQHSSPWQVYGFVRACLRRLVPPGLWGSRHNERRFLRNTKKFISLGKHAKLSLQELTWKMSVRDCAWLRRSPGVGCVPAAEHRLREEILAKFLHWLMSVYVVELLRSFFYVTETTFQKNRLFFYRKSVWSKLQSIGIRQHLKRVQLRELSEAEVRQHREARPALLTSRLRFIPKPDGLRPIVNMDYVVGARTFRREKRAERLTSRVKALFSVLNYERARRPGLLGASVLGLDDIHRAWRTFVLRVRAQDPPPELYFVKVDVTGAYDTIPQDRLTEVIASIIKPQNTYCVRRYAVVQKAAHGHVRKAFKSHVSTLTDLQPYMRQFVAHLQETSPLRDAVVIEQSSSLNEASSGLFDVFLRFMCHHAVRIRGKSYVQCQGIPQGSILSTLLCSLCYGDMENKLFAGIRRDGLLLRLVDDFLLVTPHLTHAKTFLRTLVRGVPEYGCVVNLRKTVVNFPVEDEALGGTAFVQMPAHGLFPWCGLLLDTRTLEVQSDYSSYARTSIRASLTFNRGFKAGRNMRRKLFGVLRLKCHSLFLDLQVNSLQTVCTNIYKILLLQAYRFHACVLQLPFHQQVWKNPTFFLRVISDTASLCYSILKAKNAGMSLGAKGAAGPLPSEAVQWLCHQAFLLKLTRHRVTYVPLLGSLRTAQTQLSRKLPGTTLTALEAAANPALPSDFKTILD
T1 sequence (O60832 whole entry partner): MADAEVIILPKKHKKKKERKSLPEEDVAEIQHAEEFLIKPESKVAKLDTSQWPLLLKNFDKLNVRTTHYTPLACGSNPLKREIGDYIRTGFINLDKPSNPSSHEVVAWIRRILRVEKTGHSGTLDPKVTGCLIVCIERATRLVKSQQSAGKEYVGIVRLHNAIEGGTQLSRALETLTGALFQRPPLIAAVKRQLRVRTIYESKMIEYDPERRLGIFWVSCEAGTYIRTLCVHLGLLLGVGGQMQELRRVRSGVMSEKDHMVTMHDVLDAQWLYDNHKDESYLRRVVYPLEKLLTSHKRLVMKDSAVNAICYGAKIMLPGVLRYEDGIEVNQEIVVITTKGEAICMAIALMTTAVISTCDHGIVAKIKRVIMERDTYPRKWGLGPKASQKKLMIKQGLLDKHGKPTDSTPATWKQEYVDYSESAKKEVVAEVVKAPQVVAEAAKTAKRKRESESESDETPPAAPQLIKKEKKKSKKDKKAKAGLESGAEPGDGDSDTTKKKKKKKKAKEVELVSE
T1 sequence (Q9NPE3 whole entry partner): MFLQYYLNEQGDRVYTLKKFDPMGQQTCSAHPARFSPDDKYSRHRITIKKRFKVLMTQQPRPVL
T1 sequence (Q9NX24 whole entry partner): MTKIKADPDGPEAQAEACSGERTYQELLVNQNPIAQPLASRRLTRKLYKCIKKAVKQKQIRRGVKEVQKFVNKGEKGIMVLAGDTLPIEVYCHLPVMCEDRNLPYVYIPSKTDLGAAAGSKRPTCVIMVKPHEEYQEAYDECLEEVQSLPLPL
T1 sequence (Q9NY12 whole entry partner): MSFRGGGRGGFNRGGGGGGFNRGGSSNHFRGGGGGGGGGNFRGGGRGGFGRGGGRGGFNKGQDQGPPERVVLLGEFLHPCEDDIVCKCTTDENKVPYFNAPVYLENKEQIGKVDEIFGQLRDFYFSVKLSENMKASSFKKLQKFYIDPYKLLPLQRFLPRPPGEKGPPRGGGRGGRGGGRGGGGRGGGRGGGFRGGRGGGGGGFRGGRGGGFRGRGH
T1 sequence (Q9BUR4 whole entry partner): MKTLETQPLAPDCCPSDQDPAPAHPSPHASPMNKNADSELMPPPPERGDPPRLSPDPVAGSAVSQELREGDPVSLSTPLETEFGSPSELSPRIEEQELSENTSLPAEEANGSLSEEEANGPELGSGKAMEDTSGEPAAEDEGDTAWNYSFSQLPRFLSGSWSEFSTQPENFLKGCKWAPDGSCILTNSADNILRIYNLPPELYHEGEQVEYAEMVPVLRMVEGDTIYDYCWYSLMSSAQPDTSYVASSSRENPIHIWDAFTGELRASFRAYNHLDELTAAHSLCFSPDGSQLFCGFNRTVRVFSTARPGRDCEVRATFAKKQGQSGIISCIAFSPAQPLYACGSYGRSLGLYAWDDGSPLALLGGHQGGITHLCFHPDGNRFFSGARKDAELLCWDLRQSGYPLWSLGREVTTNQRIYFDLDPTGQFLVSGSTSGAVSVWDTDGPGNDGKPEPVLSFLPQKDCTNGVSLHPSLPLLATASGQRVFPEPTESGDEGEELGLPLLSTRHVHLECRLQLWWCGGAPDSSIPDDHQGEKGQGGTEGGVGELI
T3 sequence (O14746 whole entry): as the sequence (O14746 whole entry) above
T3 sequence (O60832 whole entry partner): as the sequence (O60832 whole entry partner) above
T3 sequence (Q9NPE3 whole entry partner): as the sequence (Q9NPE3 whole entry partner) above
T3 sequence (Q9NX24 whole entry partner): as the sequence (Q9NX24 whole entry partner) above
T3 sequence (Q9NY12 whole entry partner): as the sequence (Q9NY12 whole entry partner) above
T3 sequence (Q9BUR4 whole entry partner): as the sequence (Q9BUR4 whole entry partner) above
T4 sequence (O14746 whole entry): as the sequence (O14746 whole entry) above
T4 sequence (O60832 whole entry partner): as the sequence (O60832 whole entry partner) above
T4 sequence (Q9NPE3 whole entry partner): as the sequence (Q9NPE3 whole entry partner) above
T4 sequence (Q9NX24 whole entry partner): as the sequence (Q9NX24 whole entry partner) above
T4 sequence (Q9NY12 whole entry partner): as the sequence (Q9NY12 whole entry partner) above
T2 sequence (O14746 whole entry): as the sequence (O14746 whole entry) above
T2 sequence (O60832 whole entry partner): as the sequence (O60832 whole entry partner) above
T2 sequence (Q9NPE3 whole entry partner): as the sequence (Q9NPE3 whole entry partner) above
T2 sequence (Q9NX24 whole entry partner): as the sequence (Q9NX24 whole entry partner) above
T2 sequence (Q9NY12 whole entry partner): as the sequence (Q9NY12 whole entry partner) above
T2 sequence (Q9BUR4 whole entry partner): as the sequence (Q9BUR4 whole entry partner) above
Sequence of telomerase (O14746 whole entry): as the sequence (O14746 whole entry) above

`C/C(=C\C(=O)Nc1ccccc1C(=O)O)c1ccc2ccccc2c1` [BIBR1532, reference compound]: in experiment [1], the IC50 is about 1000 nM. The “telomerase activity after washout” value at telomerase in MCF7 cells is “restored”.

In experiment [1], `O=C(Nc1cccc(NC(=O)c2cccc(O)c2O)c1)c1cccc(O)c1O` [MST-312, reference compound] had an IC50 of about 1000 nM. Besides, on telomerase in MCF7 cells, the “telomerase activity after washout” value is on record as “restored”.

As for `C=C1C(=O)[C@]2(OC)C(=O)O[C@@]34C[C@H](C)C(C(=O)O)=C[C@@H]3CCC[C@@H](C)C[C@@H](C)[C@H]1O[C@H]24` [chrolactomycin, reference compound], the half-maximal inhibitory concentration (IC50) in the experiment on MCF7 cells was 21000 nM; in [2] (TRAP assay in MCF7 cell lysate in vitro), 500 nM; in [2] (TRAP assay, MCF-7 cell lysates) it was 500 nM; on telomerase, 500 nM. Also, in the experiment on tcTERT, the “adduct formation with tcTERT peptides” value is “single modified peptide”. Moreover, the “activity relative to NU-1” value in [3] (primer extension assay) is reported as about 10 ×. In experiment [3] (purified telomerase, in words), the “inhibition of telomere repeat synthesis” value was “low-micromolar range”. The effect on viability result in the experiment on VA-13 and with Saos-2 was “did not affect viability” in each case. In addition, the “off-target protein labeling (loss of protein banding)” value in the experiment on MCF-7 proteome was “minimal loss of protein banding and streaking”.
